Among the test systems are OVCAR-5 ovarian; HCT-15 colon; UACC-62 melanoma; TK-10 renal; NCI-H522 lung; KM12 colon; OVCAR-4 ovarian; UO-31 renal; RXF 393 renal; LOX IMVI melanoma.
Holding throughout (assay): DTP human tumour cell line panel, 48 h

The results in this text go back to PubChem BioAssay (NCI).

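These data come from cells grown in 96-well plates and exposed to compound for 48 hours at five concentrations. Abbreviation: GI50, concentration required for 50% inhibition of growth. TGI: concentration producing complete growth inhibition.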

Consider `CC1=N/C(=C\c2ccc([N+](=O)[O-])cc2)C(=O)O1`, for which the TGI with OVCAR-5 ovarian, in the test with HCT-15 colon, with UACC-62 melanoma, in the test on TK-10 renal, in the test with NCI-H522 lung and in the test on KM12 colon was > 100 µM each time. The TGI with OVCAR-4 ovarian, in the test on UO-31 renal and in the test with RXF 393 renal was > 100 µM throughout.
Take `COc1ccc(/C=C/C(C(=O)O)C(=O)O)cc1`: the TGI with OVCAR-5 ovarian, in the test with HCT-15 colon, with UACC-62 melanoma, in the test on TK-10 renal, in the test with NCI-H522 lung and in the test on KM12 colon was > 100 µM throughout. For the same compound, the TGI (commonly the concentration at which net growth stops) in the test with OVCAR-4 ovarian was > 100 µM; in the test with UO-31 renal it was > 100 µM; with LOX IMVI melanoma, 39.5 µM.
On to `CCCCC#Cc1cccc(=O)o1`, for which the GI50 (commonly the concentration giving 50% growth inhibition) in the test on OVCAR-5 ovarian is > 100 µM; in the test on UACC-62 melanoma, 30 µM; in the test with TK-10 renal it was > 100 µM; in the test with NCI-H522 lung it was 7.16 µM; in the test on KM12 colon, 37.1 µM; in the test on OVCAR-4 ovarian it was > 100 µM. For the same compound, the GI50 in the test on UO-31 renal was 20.8 µM; with RXF 393 renal, 44.3 µM. Besides, the TGI in the test with OVCAR-5 ovarian, in the test on UACC-62 melanoma, in the test with TK-10 renal, in the test with NCI-H522 lung, with KM12 colon and with OVCAR-4 ovarian was > 100 µM each time. The concentration for total growth inhibition (TGI) with UO-31 renal and with RXF 393 renal was > 100 µM each time.
On to `COC(=O)c1cc2c(cc1Cl)SC(N(N(C)C)S(=O)(=O)c1ccc(Cl)cc1)=NS2(=O)=O`, for which the GI50 with OVCAR-5 ovarian is 20.1 µM; in the test with HCT-15 colon, 14.1 µM; with UACC-62 melanoma it was 17 µM; in the test on TK-10 renal, 19.2 µM; in the test with NCI-H522 lung, 12.4 µM; in the test on KM12 colon, 13.8 µM. The GI50 with OVCAR-4 ovarian is 18.1 µM; with UO-31 renal it was 25.3 µM; in the test on LOX IMVI melanoma it was 15 µM. For the same compound, the TGI in the test with OVCAR-5 ovarian was 46.7 µM; in the test on HCT-15 colon it was 27.1 µM; in the test on UACC-62 melanoma it was 35.6 µM; in the test with TK-10 renal, 53.3 µM; in the test with NCI-H522 lung it was 30.2 µM; in the test with KM12 colon, 27 µM. Further, the TGI in the test with OVCAR-4 ovarian is 54.8 µM; with UO-31 renal, > 100 µM; with LOX IMVI melanoma it was 28.3 µM.
For `CCOC(=O)C1(C(=O)OCC)CC=C(C)CC12C(=O)Nc1ccccc12` (stereo not drawn), the TGI with OVCAR-5 ovarian, in the test on HCT-15 colon, in the test with UACC-62 melanoma, with TK-10 renal, in the test on NCI-H522 lung and in the test with KM12 colon was > 100 µM each time. The TGI with OVCAR-4 ovarian and in the test on LOX IMVI melanoma was > 100 µM in each case.
`CC(C)(C)n1cc(-c2ccnc(NCCNS(=O)(=O)c3cccc4ccccc34)c2)c(-c2cccc(F)c2)n1`: the GI50 in the test on OVCAR-5 ovarian was 23.7 µM; with HCT-15 colon, 6 µM; in the test with UACC-62 melanoma, 17.3 µM; in the test with TK-10 renal, 18.3 µM; in the test on NCI-H522 lung it was 15.5 µM; in the test with KM12 colon, 17.9 µM. The GI50 with OVCAR-4 ovarian was 14.6 µM; in the test with UO-31 renal, 10.4 µM; with RXF 393 renal, 12.4 µM. In addition, the TGI in the test with OVCAR-5 ovarian was found to be 69.9 µM; with HCT-15 colon, 24.9 µM; in the test on UACC-62 melanoma, 47.7 µM; with TK-10 renal it was 40.5 µM; with NCI-H522 lung, 44.5 µM; with KM12 colon it was 55.8 µM. Further, the TGI is 53.7 µM in the test on OVCAR-4 ovarian, 59.8 µM with UO-31 renal and 30.2 µM with RXF 393 renal.
On to `CS(=O)(=O)CS(=O)CS(=O)CS(=O)CC(NC(=O)CCC(N)C(=O)O)C(=O)O` (stereo not drawn), for which the TGI with OVCAR-5 ovarian, with HCT-15 colon, with UACC-62 melanoma, in the test with TK-10 renal, in the test on NCI-H522 lung and with KM12 colon was > 100 µM in each case. Moreover, the concentration for total growth inhibition (TGI) with OVCAR-4 ovarian, in the test on UO-31 renal and with LOX IMVI melanoma was > 100 µM throughout.
`CN(C)CCNC(=O)c1cccc2c1nc(-c1ccccn1)c1ccccc12`: the TGI in the test with OVCAR-5 ovarian is 38.1 µM; in the test on HCT-15 colon, 30.6 µM; in the test on UACC-62 melanoma, 31.4 µM; in the test on KM12 colon it was > 100 µM; with OVCAR-4 ovarian, 42.2 µM; with UO-31 renal, 22.7 µM. The same compound displayed a TGI in the test with RXF 393 renal of 29.2 µM.
As to `N#Cc1nc(Nc2ccc([N+](=O)[O-])cc2)sc1N`, the TGI in the test with OVCAR-5 ovarian is > 100 µM; with HCT-15 colon, > 100 µM; in the test on UACC-62 melanoma, 50.8 µM; in the test on TK-10 renal, > 77 µM; with NCI-H522 lung, 32.1 µM; in the test on KM12 colon, > 100 µM. Besides, the TGI in the test on OVCAR-4 ovarian was > 100 µM; with UO-31 renal, > 59.7 µM; in the test on LOX IMVI melanoma, 28.6 µM.
As to `COC(=O)C(=O)C(C#N)c1ccc(Cl)c(Cl)c1` (stereo not drawn), the TGI in the test on HCT-15 colon, in the test on UACC-62 melanoma, with TK-10 renal, in the test with NCI-H522 lung, in the test with KM12 colon and in the test with UO-31 renal was > 100 µM each time. Besides, the TGI with LOX IMVI melanoma is > 100 µM.
For the compound `COP1(=S)OCC2CCC[C@@H]2O1` (stereo partly drawn), the TGI in the test on OVCAR-5 ovarian, in the test with HCT-15 colon, with UACC-62 melanoma, in the test on TK-10 renal, in the test on NCI-H522 lung and in the test on KM12 colon was > 100 µM each time. Besides, the TGI with OVCAR-4 ovarian, with UO-31 renal and in the test with RXF 393 renal was > 100 µM each time.
Regarding `CCCCCCCCCC(=O)N[C@H]1CCc2cc(OC)c(OC)c(OC)c2-c2ccc(SC)c(=O)cc21`, the TGI is > 100 µM in the test with OVCAR-5 ovarian; 0.0901 µM with HCT-15 colon; 15.3 µM in the test with UACC-62 melanoma; 25.5 µM in the test with TK-10 renal; 0.0436 µM with KM12 colon; > 100 µM in the test on OVCAR-4 ovarian. For the same compound, the TGI with UO-31 renal worked out at 44.2 µM; with RXF 393 renal, 0.0551 µM. In addition, the results for the GI50 with OVCAR-4 ovarian and in the test with UO-31 renal were 10.8 µM and 0.0168 µM, respectively.
For `O=C1c2ccccc2C2(O)Oc3cccc(O)c3C12O` (stereo not drawn), the concentration for total growth inhibition (TGI) in the test with OVCAR-5 ovarian, with HCT-15 colon, with UACC-62 melanoma, in the test on TK-10 renal, in the test on NCI-H522 lung and in the test on KM12 colon was > 100 µM in each case. In addition, the TGI in the test on OVCAR-4 ovarian, in the test with UO-31 renal and with LOX IMVI melanoma was > 100 µM throughout.
